Results as given in patent US9458176B2, “Tetrahydroimidazo(1,5-D)[1,4]oxazepine derivative” (Eisai R&D Management Co., Ltd., priority 2013, dated 2016).

Each compound was assayed against human mGluR2 (Homo sapiens (Human), UniProt Q14416) (assay: [35S]GTPγS binding assay (Affinity to mGluR2)). Conditions: cell membrane fraction of HEK293 cells stably expressing human mGluR2; glutamic acid 10 μM.
human mGluR2, sequence (Q14416 19-872): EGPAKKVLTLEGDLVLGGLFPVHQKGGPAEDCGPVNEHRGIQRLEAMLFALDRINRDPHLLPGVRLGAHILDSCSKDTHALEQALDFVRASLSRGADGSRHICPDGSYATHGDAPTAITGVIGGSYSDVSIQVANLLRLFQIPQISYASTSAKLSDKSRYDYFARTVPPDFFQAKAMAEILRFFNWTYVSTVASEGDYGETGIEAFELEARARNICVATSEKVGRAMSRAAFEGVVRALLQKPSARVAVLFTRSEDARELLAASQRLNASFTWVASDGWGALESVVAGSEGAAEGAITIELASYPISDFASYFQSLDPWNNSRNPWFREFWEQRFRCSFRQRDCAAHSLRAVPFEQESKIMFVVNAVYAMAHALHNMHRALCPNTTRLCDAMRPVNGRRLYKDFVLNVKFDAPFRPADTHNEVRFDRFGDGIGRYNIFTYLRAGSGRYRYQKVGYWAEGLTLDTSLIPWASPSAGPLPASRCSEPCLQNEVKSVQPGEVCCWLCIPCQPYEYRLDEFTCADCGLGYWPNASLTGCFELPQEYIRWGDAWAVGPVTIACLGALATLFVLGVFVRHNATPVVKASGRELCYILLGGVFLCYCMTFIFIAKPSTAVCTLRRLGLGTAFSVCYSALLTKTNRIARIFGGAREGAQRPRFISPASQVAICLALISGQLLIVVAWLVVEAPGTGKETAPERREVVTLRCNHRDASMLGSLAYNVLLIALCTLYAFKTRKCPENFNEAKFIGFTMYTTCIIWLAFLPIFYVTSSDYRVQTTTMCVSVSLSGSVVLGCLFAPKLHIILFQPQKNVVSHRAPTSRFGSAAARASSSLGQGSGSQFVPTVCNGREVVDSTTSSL
Assay type: biochemical
Experimental: (Preparation of Cell Membrane Fraction of HEK293 Cells Stably Expressing Human Metabotropic Glutamate Receptor 2 (mGluR2))
HEK293 cells stably expressing human mGluR2 and human glutamate transporter SLC1A3 were cultured in a Dulbecco's modified Eagle's medium with 10% fetal bovine serum (50 units/mL of penicillin, 50 μg/mL of streptomycin, 60 μg/mL of geneticin, 400 μg/mL of hygromycin B and 2 mM of glutamine) at 37° C. under 5% CO2. Confluent cell cultures were washed twice with PBS(−), and then scraped off with a cell scraper, and subjected to centrifugal separation at 4° C. and 1500 rpm for 5 minutes for collecting cells. The centrifuged sediment (cell pellet) was homogenized in a 20 mM HEPES buffer containing 10 mM EDTA (pH 7.4) by using sonicator and centrifuged at 4° C. and 1500×g for 30 minutes. The supernatant (soluble fraction) was subjected to the centrifugal separation at 4° C. and 40,000×g for 30 minutes, and thus, insoluble fraction was obtained. After additional centrifugally washing the obtained fraction with 20 mM HEPES buffer containing 10 mM EDTA (pH 7.4), the pellet was centrifugally suspended with a 20 mM HEPES buffer containing 0.1 mM EDTA, and the cell membrane fraction was obtained by the centrifugal separation at 4° C. and 40,000×g for 30 minutes. The thus obtained cell membrane fraction was suspended in a 20 mM HEPES buffer containing 0.1 mM EDTA in a protein concentration of 3 mg/mL, which was stored at −80° C.
([^35S]GTPγS Binding Assay)
The frozen cell membrane fraction prepared as described above was thawed before use, and the resultant was diluted with a buffer for a binding assay (final concentrations: 20 mM HEPES, 100 mM NaCl, 1 mM MgCl2, 3 μM GDP, 300 μg/mL saponin, 0.1% BSA). The compound of each example was added to a cell membrane fraction containing 1.8 to 3 μg/assay of membrane protein on a plate, followed by incubation at room temperature for 30 minutes. Thereafter, with glutamic acid (in a final concentration of 10 μM) added thereto, incubation was performed at room temperature for 15 minutes, and thereafter, [^35S]GTPγS (in a final concentration of 0.8 kBq) and 588 μg WGA-SPA beads were added thereto, followed by incubation at room temperature for 1 hour. After the incubation, the plate was subjected to the centrifugal separation at 2,500 rpm and room temperature, and then, membrane cell binding radioactivity was measured with a top count.
A [^35S]GTPγS binding amount obtained by performing the above-described reaction in the absence of glutamic acid was defined as nonspecific binding, and a difference from a [^35S]GTPγS binding amount obtained in the presence of glutamic acid was defined as specific binding. On the basis of ratios of inhibiting the specific binding at various concentrations of the compounds of the respective examples, inhibition curves were obtained. Concentrations of the compounds of the respective examples at which the specific [^35S]GTPγS binding amount was suppressed by 50% (IC50 values) were calculated on the basis of the inhibition curves and shown in Tables 8 and 9.
COc1cc(-c2nc(-c3ccnc(C)c3)c3n2C[C@@H](C)OCC3)ccc1Cl [Example 114] was tested, and the IC50 was 19.2 nM. Cc1cc(-c2nc(-c3ccc(F)c(OCC4(C)COC4)c3)n3c2CCO[C@H](C)C3)cc(C)n1 [Example 99] showed an IC50 of 103 nM. For Cc1cc(-c2nc(-c3ccc(F)c(OCC4CCC4)c3)n3c2CCO[C@H](C)C3)ccn1 [Example 100], the IC50 was 25.3 nM. Work on Cc1cc(-c2nc(-c3ccc(OC4CC4)c(C)c3)n3c2CCO[C@H](CF)C3)cc(C)n1 [Example 22, (S)-3-(4-cyclopropoxy-3-methylphenyl)-1-(2,6-dimethylpyridin-4-yl)-6-(fluoromethyl)-5,6,8,9-tetrahydroimidazo[1,5-d][1,4]oxazepine] yielded an IC50 of 4.1 nM. In the case of COc1cc(-c2nc(-c3cc(C)nc(CF)c3)c3n2C[C@@H](C)OCC3)ccc1C [Example 90], the IC50 is reported as 12.7 nM. COc1cc(-c2nc(-c3cc(C)nc(C(F)F)c3)c3n2C[C@@H](CF)OCC3)ccc1C(F)(F)F [Example 31, (S)-1-(2-(difluoromethyl)-6-methylpyridin-4-yl)-6-(fluoromethyl)-3-(3-methoxy-4-(trifluoromethyl)phenyl)-5,6,8,9-tetrahydroimidazo[1,5-d][1,4]oxazepine] showed an IC50 of 7.9 nM. Compound Cc1cc(-c2nc(-c3ccc(C(F)(F)F)c(F)c3)n3c2CCO[C@H](C)C3)cc(C)n1 [Example 134] has an IC50 of 27.8 nM. Cc1cc(-c2nc(-c3ccc(Cl)c(F)c3)n3c2CCOCC3)cc(C)n1 [Example 105] gave an IC50 of 92.1 nM. For Cc1cc(-c2nc(-c3ccc(Cl)c(C)c3)n3c2CCO[C@H](C)C3)ccn1 [Example 54], the IC50 was 19.4 nM. Cc1cc(-c2nc(-c3ccc(OC(F)(F)F)cc3)n3c2CCO[C@H](C)C3)ccn1 [Example 50] was tested, and the IC50 was 14.2 nM. Compound Cc1cc(-c2nc(-c3ccc(C(F)(F)F)c(C)c3)n3c2CCO[C@H](C)C3)cc(C)n1 [Example 124] has an IC50 of 4.5 nM. Compound Cc1cc(-c2nc(-c3ccc(Cl)c(Cl)c3)n3c2CCO[C@H](C)C3)cc(C)n1 [Example 65] has an IC50 of 14 nM. Work on Cc1cc(-c2nc(-c3ccc(Cl)c(C)c3)n3c2CCO[C@H](CF)C3)cc(C)n1 [Example 73] yielded an IC50 of 24.8 nM. With Cc1cc(-c2nc(-c3ccc(Cl)c(C(F)(F)F)c3)n3c2CCO[C@H](C)C3)cc(C)n1 [Example 140] the IC50 was 5.7 nM. Cc1cc(-c2nc(-c3ccc(Cl)c(C#N)c3)n3c2CCOCC3)cc(C)n1 [Example 111] was tested, and the IC50 was 25.2 nM. COc1cc(-c2nc(-c3ccnc(C)c3)c3n2C[C@@H](CF)OCC3)ccc1C [Example 72] gave an IC50 of 29.4 nM. COc1cc(-c2nc(-c3cc(C)nc(C)c3)c3n2C[C@@H](C)OCC3)ccc1C(C)(F)F [Example 23, (R)-3-(4-(1,1-difluoroethyl)-3-methoxyphenyl)-1-(2,6-dimethylpyridin-4-yl)-6-methyl-5,6,8,9-tetrahydroimidazo[1,5-d][1,4]oxazepine] gave an IC50 of 19.4 nM. Cc1cc(-c2nc(-c3ccc(Cl)c(F)c3)n3c2CCO[C@H](C)C3)cc(C)n1 [Example 56] gave an IC50 of 21.9 nM. COc1cc(-c2nc(-c3ccnc(C)c3)c3n2C[C@@H](CF)OCC3)ccc1Cl [Example 26, (S)-3-(4-chloro-3-methoxyphenyl)-6-fluoromethyl-1-(2-methylpyridin-4-yl)-5,6,8,9-tetrahydroimidazo[1,5-d][1,4]oxazepine] showed an IC50 of 13.5 nM. For Cc1cc(-c2nc(-c3ccc(Cl)c(C#N)c3)n3c2CCO[C@H](C)C3)cc(C)n1 [Example 130], the IC50 was 26 nM. For COc1cc(-c2nc(-c3cc(C)nc(C)c3)c3n2CCOCC3)ccc1C [Example 46], the IC50 was 65.6 nM. With Cc1cc(-c2nc(-c3cccc(Cl)c3)n3c2CCO[C@H](C)C3)ccn1 [Example 63] the IC50 was 78.6 nM. Work on Cc1cc(-c2nc(-c3ccc(Cl)c(C(F)F)c3)n3c2CCO[C@H](C)C3)cc(C)n1 [Example 131] yielded an IC50 of 25.5 nM. In the case of COc1cc(-c2nc(-c3cc(C)nc(C)c3)c3n2C[C@@H](CF)OCC3)ccc1C(F)(F)F [Example 29, (S)-1-(2,6-dimethylpyridin-4-yl)-6-(fluoromethyl)-3-(3-methoxy-4-(trifluoromethyl)phenyl)-5,6,8,9-tetrahydroimidazo[1,5-d][1,4]oxazepine], the IC50 is reported as 3.8 nM. Compound COc1cc(-c2nc(-c3ccnc(C)c3)c3n2C[C@@H](C)OCC3)ccc1C [Example 55] has an IC50 of 21.9 nM. Work on Cc1cc(-c2nc(-c3ccc(C(F)F)c(Cl)c3)n3c2CCOCC3)cc(C)n1 [Example 137] yielded an IC50 of 18.7 nM. Work on Cc1cc(-c2nc(-c3ccc(F)c(OCC4CCC4)c3)n3c2CCOCC3)cc(C)n1 [Example 97] yielded an IC50 of 25.4 nM. COc1cc(-c2nc(-c3cc(C)nc(C)c3)c3n2C[C@@H](CF)OCC3)ccc1C(F)F [Example 28, (S)-3-(4-(difluoromethyl)-3-methoxyphenyl)-1-(2,6-dimethylpyridin-4-yl)-6-(fluoromethyl)-5,6,8,9-tetrahydroimidazo[1,5-d][1,4]oxazepine] showed an IC50 of 16.2 nM. Work on CCOc1cc(-c2nc(-c3cc(C)nc(C)c3)c3n2C[C@@H](C)OCC3)ccc1C(F)(F)F [Example 82] yielded an IC50 of 1.1 nM.

Same assay, conditions: cell membrane fraction of HEK293 cells stably expressing human mGluR2; glutamic acid 10 μM; inhibition of specific [35S]GTPγS binding
In the case of Cc1cc(-c2nc(-c3ccc(Cl)c(CF)c3)n3c2CCO[C@H](C)C3)cc(C)n1 [Example 238], the IC50 is reported as 36.8 nM. With CCOc1ccc(-c2nc(-c3cc(C)nc(C)c3)c3n2CCOCC3)cc1Cl [Example 216] the IC50 was 48 nM. COc1ccc(-c2nc(-c3cc(C)nc(C)c3)c3n2C[C@@H](C)OCC3)cc1OC(F)(F)F [Example 154] showed an IC50 of 6.7 nM. With Cc1cc(-c2nc(-c3ccc(F)c(C(F)(F)F)c3)n3c2CCO[C@H](CF)C3)ccn1 [Example 174] the IC50 was 24.3 nM. Cc1cc(-c2nc(-c3ccc(OCC(F)F)c(Cl)c3)n3c2CCOCC3)cc(C)n1 [Example 218] was tested, and the IC50 was 78.8 nM. Work on Cc1cc(-c2nc(-c3ccc(OCCF)c(Cl)c3)n3c2CCO[C@H](C)C3)cc(C)n1 [Example 239] yielded an IC50 of 11.9 nM. With COc1cc(-c2nc(-c3ccnc(C)c3)c3n2C[C@@H](C)OCC3)ccc1F [Example 141] the IC50 was 51.9 nM. In the case of Cc1cc(-c2nc(-c3ccc(OC4CC4)c(Cl)c3)n3c2CCO[C@H](CF)C3)cc(C)n1 [Example 167], the IC50 is reported as 1.8 nM. Work on COc1cc(-c2nc(-c3cc(C)nc(CO)c3)c3n2C[C@@H](CF)OCC3)ccc1OC(F)F [Example 194] yielded an IC50 of 108 nM. Work on Cc1cc(-c2nc(-c3ccc(C(F)(F)F)cc3)n3c2CCO[C@H](C)C3)cc(C)n1 [Example 142] yielded an IC50 of 20.2 nM. Compound Cc1cc(-c2nc(-c3ccc(OC(F)F)c(F)c3)n3c2CCO[C@H](C)C3)ccn1 [Example 182] has an IC50 of 19.3 nM. For COc1cc(-c2nc(-c3cc(C)nc(C(F)F)c3)c3n2C[C@@H](CF)OCC3)ccc1Cl [Example 176], the IC50 was 38.8 nM. For COc1cc(-c2nc(-c3ccnc(C)c3)c3n2C[C@@H](CF)OCC3)ccc1C(F)F [Example 160], the IC50 was 24.1 nM. Cc1cc(-c2nc(-c3ccc(OC(F)(F)F)c(C)c3)n3c2CCO[C@H](CF)C3)cc(C)n1 [Example 161] was tested, and the IC50 was 4 nM. For COc1cc(-c2nc(-c3cc(C)nc(C(F)F)c3)c3n2C[C@@H](C)OCC3)ccc1C(F)F [Example 189], the IC50 was 15.1 nM. Compound COc1ccc(-c2nc(-c3cc(C)nc(CF)c3)c3n2C[C@@H](C)OCC3)cc1OC(F)(F)F [Example 210] has an IC50 of 4.7 nM. Cc1cc(-c2nc(-c3ccc(OC(F)(F)F)c(CF)c3)n3c2CCO[C@H](C)C3)cc(C)n1 [Example 231] gave an IC50 of 2.4 nM. In the case of Cc1cc(-c2nc(-c3ccc(OC(F)(F)F)c(Cl)c3)n3c2CCO[C@H](C)C3)ccn1 [Example 153], the IC50 is reported as 3 nM. Compound Cc1cc(-c2nc(-c3ccc(Cl)c(C(F)(F)F)c3)n3c2CCO[C@H](C)C3)ccn1 [Example 152] has an IC50 of 14.5 nM. COc1cc(-c2nc(-c3ccnc(C)c3)c3n2C[C@@H](C)OCC3)ccc1OC(F)F [Example 149] gave an IC50 of 18.9 nM. With Cc1cc(-c2nc(-c3ccc(OC(F)(F)F)c(C)c3)n3c2CCO[C@H](C)C3)cc(CO)n1 [Example 179] the IC50 was 17.9 nM. For CCOc1cc(-c2nc(-c3cc(C)nc(C)c3)c3n2C[C@@H](C)OCC3)ccc1CC [Example 220], the IC50 was 5.9 nM. With COc1cc(-c2nc(-c3cc(C)nc(C)c3)c3n2C[C@@H](CF)OCC3)ccc1OC(F)F [Example 163] the IC50 was 15.8 nM. With COc1cc(-c2nc(-c3cc(C)nc(C(F)F)c3)c3n2C[C@@H](CF)OCC3)ccc1OC(F)F [Example 193] the IC50 was 9 nM.
